Like-named read-outs stand apart in the source and are kept apart here.
Columns and labels:
[1] = cited from earlier work
[2] = Time-resolved phosphorimetry (singlet oxygen generation quantum yield); type: physicochemical; settings: 250 μM in DMSO and methanol (1:9); 532 nm excitation
Method: A sample of Rose Bengal and the Si-Me of Comparative Example 1 was prepared in a DMSO and methanol (1:9) solution placed in a 1×1×4 cm^3 quartz cell (the concentration of Rose Bengal=21.5 μM, and the concentration of Si-Me=250 μM).
Second harmonic oscillation (532 nm, 4 nsfwhm, 5.0 mJ·cm^−2 pulse^−1) generated by a Q-switched Nd YAG laser (Surelite II-10, Continuum) was used as an excitation light. The light-induced luminescence of the sample cell was condensed on a quartz lens via a monochromator, and subsequently introduced into a near-infrared photomultiplier tube module (H10330A-75; Hamamatsu Photonics K.K.).
After the amplification using a 350-MHz amplifier unit (SR445A; Stanford Research Systems), the output of the photomultiplier tube was sent to a gated photon counter (SR400; Stanford Research Systems) under direct PC control via a GPIB interface. In order to measure the lifetime of ^1O2, measurement was performed by changing the delay time between 0 to 50 μseconds at a gate width of 1.0 μsecond, and accumulating the results (repeated 5 times).

HeLa cells = assay: Selectivity of photosensitizer: intracellular singlet oxygen detection with Si-DMA; type: cell-based; settings: HeLa cells, Si-DMA probe; 60-second light irradiation; photosensitizer as labelled
Method: Subsequently, a quick protocol provided by Molecular Probe® for introducing CellROX Green was followed. Using diluted Si-DMA and Si-Me, incubation was performed for 30 minutes to two hours by an experiment. To introduce a photosensitizer, 150 μg/mL of 5-aminolevulinic acid (5-ALA) or 10 LM TMPyP4 were incubated for four hours and 24 hours, respectively. As a result, as previously reported, the conversion of 5-ALA into protoporphyrin IX (PpIX) in the mitochondria was confirmed by the fluorescence luminescence of PpIX.
A KillerRed vector was expressed in accordance with a general Lipofectamine® 2000 (Invitrogen) protocol. More specifically, 2×10^5 Hela cells were subcultured in a 35-mm glass bottom dish. The cells reached about 50% confluent in the next day.
Subsequently, a mixed solution of Lipofectamine reagent and DNA vector was obtained by mixing 6 μL Lipofectamine® 2000 with 7 μL pKillerRed-dMitovector ([…], Evrogen, catalog No. FP964) in an Opti-MEM solution (Gibco). Thereafter, the resulting solution was incubated for 20 minutes at room temperature. 300 μL of the mixed solution was added to a growth medium, and incubated for 24 hours. The expression of KillerRed was confirmed by monitoring KillerRed fluorescence using a wide-view microscope. […]
Further, on the night before the treatment, 0.2×10^6 HeLa cells were seeded on a 35-mm dish, and pKillerRed-dMito vector (Evrogen) was introduced using Lipofectaimine®2000 (Invitrogen®), followed by 24-hour incubation as described above, thereby preparing HeLa cells containing […]. […] Light irradiation was performed for 30 seconds simultaneously at 0.5 W/cm^2 and 0.6 W/cm^2 using a 640-/532-nm laser (Coherent) and a wide-view fluorescence microscope system mounted in an IX81 inverted microscope (Olympus Corporation). […]
Further, in this Experiment Example, 60-second light irradiation was performed using three kinds of photosensitizers, and an average number of pseudo colors appeared in the photo and an increase thereof were measured. […]

For `O=C1OC2(c3cc(Cl)c(O)cc3Oc3cc(O)c(Cl)cc32)c2ccccc21` [2,7-dichlorofluorescein], the “ΦΔ (singlet oxygen generation quantum yield)” value ([1]; comparison value for SOSG chromophore) is given as 0.06.

With `Cc1ccccc1C1=C2C=CC(=[N+](C)C)C=C2[Si](C)(C)c2cc(N(C)C)ccc21` [Si-Me] the “ΦΔ (singlet oxygen generation quantum yield)” value [2] was “about 0.02”.

For `O=C([O-])c1c(Cl)c(Cl)c(Cl)c(Cl)c1-c1c2cc(I)c(=O)c(I)c-2oc2c(I)c([O-])c(I)cc12.[Na+].[Na+]` [Rose Bengal], the “ΦΔ (singlet oxygen generation quantum yield)” value ([1]; in methanol, reference value) is given as 0.76.

In the case of `C[n+]1ccc(-c2c3nc(c(-c4cc[n+](C)cc4)c4ccc([nH]4)c(-c4cc[n+](C)cc4)c4nc(c(-c5cc[n+](C)cc5)c5ccc2[nH]5)C=C4)C=C3)cc1` [TMPyP4, tetra-(N-methyl-4-pyridyl)porphyrin, reference compound], the “average number of pseudo colors during light irradiation (Si-DMA fluorescence)” value (HeLa cells) was “decreased”.

From US10564164B2, “Fluorescent probe, singlet oxygen detection agent, and singlet oxygen detection method” (Osaka University, priority 2014, dated 2020)
